{"source": "patent US8741882B2", "about": "“Anti-diabetic compounds” (Sen Capital, LLC., priority 2012, dated 2014)", "key": {"ICR mouse": {"tested_on": "ICR mouse", "experiment": "Animal test: blood glucose after oral glucose load in mice dosed by oral gavage", "type": "in vivo", "details": "for response versus vehicle control (negative group), p<0.05 / Means at 20 min. (mean value of glucose level at 20 min. minus glucose level at time zero, before glucose dosing) / blood glucose level as compared with the Vehicle group during the test period (FIG. 5): ICR mouse; for response versus vehicle control (negative group), p<0.05: Metformin Hydrochloride 150 mg/kg, Compound 2 525 and 1050 mg/kg; for Means at 20 min. (mean value of glucose level at 20 min. minus glucose level at time zero, before glucose dosing): 1.5 g/kg glucose 30 min after dosing, in mg/dL; for blood glucose level as compared with the Vehicle group during the test period (FIG. 5): oral gavage, doses as in Table 1", "method": "Approximately 7-9-week-old ICR mouse were purchased from BioLASCO Taiwan Co., Ltd (Taipei, Taiwan).\nLinear analysis of the glucose monitoring system: eight concentrations (0, 50, 100, 200, 300, 400, 500, 600 mg/dL) of glucose solution were determined duplicate. The animals were fasted approximately 4 hours before dosing. Then, the animals were administered with the test compounds via oral gavage. After 30 minutes of the test compound dosed, the animals were administered with 1.5 g/kg glucose solution (Concentration: 0.15 g/mL, Dose volume: 10 mL/kg) via oral gavage. The blood glucose was determined before the test compound dosing, before glucose dosing, and after glucose dosing in 5, 15, 20, 25, 30, 40 and 50 minutes.\nThe results were expressed as means and the statistical significance was evaluated by analysis of variance (ANOVA) followed by least significance difference post hoc test. A level of p<0.05 was considered statistically significant."}, "[1]": {"details": "following oral administration; cited from earlier work"}}, "note": "Counter-ions that a name gives are not always drawn."}
{"smiles": "COC(=O)CC[C@@H](C)[C@H]1CC[C@H]2[C@@H]3[C@H](O)C[C@@H]4C[C@H](OC(=O)NC(=N)NC(=N)N(C)C)CC[C@]4(C)[C@H]3C[C@H](O)[C@]12C", "note": "[Compound 2]", "values": [{"measurement": "response versus vehicle control (negative group), p<0.05", "setting": "ICR mouse", "value": "significantly different"}, {"measurement": "Means at 20 min. (mean value of glucose level at 20 min. minus glucose level at time zero, before glucose dosing)", "setting": "ICR mouse; Test 1, 525 mg/kg oral gavage", "value": 225.8}, {"measurement": "Means at 20 min. (mean value of glucose level at 20 min. minus glucose level at time zero, before glucose dosing)", "setting": "ICR mouse; Test 2, 1050 mg/kg oral gavage", "value": 225.8}, {"measurement": "blood glucose level as compared with the Vehicle group during the test period (FIG. 5)", "setting": "ICR mouse", "value": "lowered"}, {"measurement": "effect on hyperglycemia in terms of efficacy in lowering blood glucose in animals", "setting": "ICR mouse; summary of Example 3", "value": "improved hyperglycemia"}]}
{"smiles": "CN(C)C(=N)N=C(N)N", "note": "[Metformin Hydrochloride]", "values": [{"measurement": "Means at 20 min. (mean value of glucose level at 20 min. minus glucose level at time zero, before glucose dosing)", "setting": "ICR mouse; 150 mg/kg oral gavage", "value": 125.4}, {"measurement": "response versus vehicle control (negative group), p<0.05", "setting": "ICR mouse", "value": "significantly different"}, {"measurement": "blood glucose level as compared with the Vehicle group during the test period (FIG. 5)", "setting": "ICR mouse", "value": "lowered"}]}
{"smiles": "CN(C)C(=N)NC(=N)N", "note": "[Metformin, N,N-dimethylimidodicarbonimidic diamide]", "values": [{"measurement": "absorbed drug eliminated via the renal route within the first 24 hours", "setting": "[1]", "value": "approximately 90%"}, {"measurement": "response versus vehicle control (negative group), p<0.05", "setting": "ICR mouse", "value": "significantly different"}]}
